Reference: patent US20260355330A1, “CELL PENETRATING PEPTIDES AND USES THEREOF” (VECTIOPEP OÜ, priority 2022, published 2026)

Experiments:
[1] = in words; previously reported; cited from earlier work
CHO-K1 cells = test: Comparison of reporter levels in cells post-transfection of pDNA or mRNA delivered by CPPs; type: cell-based; conditions: in words; mRNA cargo; FIG. 2
Description: FIG. 2: Comparison of reporter levels in cells post-transfection of pDNA or mRNA delivered by CPPs (P14, NF55 and NF71; relative light units normalised to total protein in the cell lysate (RLU/mg)). Naked mRNA and untreated cells (UT) were used as controls.
Adherent CHO-K1 cells were grown in Dulbecco's Modified Eagle's Medium (DMEM), which were supplemented with 0.1 mM non-essential amino acids, 1.0 mM sodium pyruvate, 100 U/ml penicillin, and […]. For complete media, 10% (final) fetal bovine serum (FBS) was added. Cells were maintained in a humidified incubator at 37 °C, 5% CO2. Cell viability and confluence was assessed daily and the cell density was reduced regularly. For cell counting, we used the CytoSMART cell counter accompanied by 0.4% trypan blue staining prior measurement. The multi-well plates with cell cultures used for experiments were incubated in a humidified incubator at 37 °C, 5% CO2.
For in vitro experiments 0.1 μg of nucleic acid (plasmid DNA (pDNA) or mRNA) was used per 96-well plate well. For CPP/NA complex formation, the diluted NA was mixed with CPP in water. Complexes were formed based on the theoretical charge ratio (CR) of positive charges from the peptide in excess to the negative charges from nucleic acid backbone, at charge ratio 3:1 with peptide in excess. […]
For reporter luminescence (expressed from firefly luciferase encoding mRNA or plasmid pDNA) assessment in adherent cell culture, 10,000 cells per 96-well plate well were seeded in 100 μl of media one day prior to transfection. […]
24 hours post-transfection, the media was aspirated, cells were washed with 1×PBS, and 30 μl of lysis buffer (0.1% Triton X100 in 1×PBS) was added. […] From the lysate, 20 μl was transferred to a black frame white well 96-well plate for luminescence measurement after addition of substrate luciferin (PerkinElmer) in buffer. The luminescence signal was detected with GloMax® 96 microplate luminometer equipped with GloMax® 1.9.2 software (Promega). […]

[2] = test system: spleen cell subtypes (T cells, macrophages, dendritic cells, rest of the lymphocytes); test: Immunophenotyping the spleen cell subtypes post-transfection of mRNA with NF55 in vivo; set-up: species or system mice; conditions: in words; luciferase mRNA 30 μg, CR2, i.v., 16 h post-injection
Description: FIG. 6: Reporter levels detected from spleen cells subtypes collected from NF55/mRNA treated mice. Reporter protein levels were evaluated from the sorted splenocytes: T cells, Macrophages, Dendritic cells and the rest of the lymphocytes. Results are shown as the fold change compared to untreated mice.
To analyse the cell subtypes that were transfected with the CPP, 30 μg of luciferase-encoding mRNA was complexed with the CPP at CR2 in water and injected i.v. 16 h post-injection, the spleens were collected into ice-cold dissociation buffer (1×PBS without Ca^2+ and Mg^2+ supplemented with 2 mM EDTA). Following gentle mechanical dissociation by grinding, splenic cells were strained with 100 μm cell strainer and centrifuged for 5 min at +4 °C, 300×g. A 2-minute incubation with 1 ml of RBC lysis buffer ACK (Thermo) was used for the red blood cell lysis. Flow cytometry buffer (dissociation buffer supplemented with 0.5% (w/v) BSA) was added, cells were centrifuged for 5 min at +4 °C, 300×g and counted. […]
In order to determine to which types of spleen cells mRNA were transfected in vivo, cells collected from the spleens of transfected animals were sorted according to their subtype and the reporter expression measured. mRNA encoding luciferase (mRNA (luc)) was used as a reporter model.

spleen of BALB/c mice = test: In vivo delivery of mRNA with CPPs - reporter levels in the spleen
Procedure, shortened: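 CPP/mRNA complexes were formed at the indicated charge ratios in water for 30 min at room temperature, using 10 or 50 μg mRNA, then brought to 5% glucose. Complexes were injected intravenously via the tail vein into BALB/c mice. Spleens were harvested 16 h after the single injection, and luciferase (RLU) was measured in whole-tissue homogenate.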

CCCCCCCCCCCCCCCCCC(=O)N[C@@H](C)C(=O)NCC(=O)N[C@@H](Cc1ccc(O)cc1)C(=O)N[C@@H](CC(C)C)C(=O)N[C@@H](CC(C)C)C(=O)NCC(=O)NCCC[C@H](N)C(=O)N[C@H](C(=O)N[C@@H](CC(N)=O)C(=O)N[C@@H](CC(C)C)C(=O)N[C@@H](CCCCN)C(=O)N[C@@H](C)C(=O)N[C@@H](CC(C)C)C(=O)N[C@@H](C)C(=O)N[C@@H](C)C(=O)N[C@@H](CC(C)C)C(=O)N[C@@H](C)C(=O)N[C@@H](CCCCN)C(=O)N[C@@H](C)C(=O)N[C@H](C(=O)N[C@@H](CC(C)C)C(N)=O)[C@@H](C)CC)[C@@H](C)CC [NF55]
pDNA delivery efficiency [1]: excellent vector for the delivery of DNA in vivo | Efficiency of mRNA transfection (parallel pDNA/mRNA comparison) (CHO-K1 cells): very efficient for mRNA transfection | Reporter signal in spleen cell subtypes [2]: the majority of the reporter signal arose from the dendritic cells (DCs) | Efficacy of mRNA delivery into the spleen in vivo (spleen of BALB/c mice; in words, FIG. 5 / Table 5): delivered mRNA into the spleen in vivo with high efficacy | Reporter levels in the spleen (RLU) (spleen of BALB/c mice; mRNA, tail vein injection, spleens harvested 16 hours after single injection, whole tissue homogenate): 124 363 RLU
